Test results published in BindingDB's records for doi:10.1016/j.bmcl.2006.02.011 (Zhengzhou University, 2006).

Target: Maltase-glucoamylase (Homo sapiens, UniProt O43451)
Test: Inhibition of alpha glucosidase

Sequence of Maltase-glucoamylase (O43451 whole entry): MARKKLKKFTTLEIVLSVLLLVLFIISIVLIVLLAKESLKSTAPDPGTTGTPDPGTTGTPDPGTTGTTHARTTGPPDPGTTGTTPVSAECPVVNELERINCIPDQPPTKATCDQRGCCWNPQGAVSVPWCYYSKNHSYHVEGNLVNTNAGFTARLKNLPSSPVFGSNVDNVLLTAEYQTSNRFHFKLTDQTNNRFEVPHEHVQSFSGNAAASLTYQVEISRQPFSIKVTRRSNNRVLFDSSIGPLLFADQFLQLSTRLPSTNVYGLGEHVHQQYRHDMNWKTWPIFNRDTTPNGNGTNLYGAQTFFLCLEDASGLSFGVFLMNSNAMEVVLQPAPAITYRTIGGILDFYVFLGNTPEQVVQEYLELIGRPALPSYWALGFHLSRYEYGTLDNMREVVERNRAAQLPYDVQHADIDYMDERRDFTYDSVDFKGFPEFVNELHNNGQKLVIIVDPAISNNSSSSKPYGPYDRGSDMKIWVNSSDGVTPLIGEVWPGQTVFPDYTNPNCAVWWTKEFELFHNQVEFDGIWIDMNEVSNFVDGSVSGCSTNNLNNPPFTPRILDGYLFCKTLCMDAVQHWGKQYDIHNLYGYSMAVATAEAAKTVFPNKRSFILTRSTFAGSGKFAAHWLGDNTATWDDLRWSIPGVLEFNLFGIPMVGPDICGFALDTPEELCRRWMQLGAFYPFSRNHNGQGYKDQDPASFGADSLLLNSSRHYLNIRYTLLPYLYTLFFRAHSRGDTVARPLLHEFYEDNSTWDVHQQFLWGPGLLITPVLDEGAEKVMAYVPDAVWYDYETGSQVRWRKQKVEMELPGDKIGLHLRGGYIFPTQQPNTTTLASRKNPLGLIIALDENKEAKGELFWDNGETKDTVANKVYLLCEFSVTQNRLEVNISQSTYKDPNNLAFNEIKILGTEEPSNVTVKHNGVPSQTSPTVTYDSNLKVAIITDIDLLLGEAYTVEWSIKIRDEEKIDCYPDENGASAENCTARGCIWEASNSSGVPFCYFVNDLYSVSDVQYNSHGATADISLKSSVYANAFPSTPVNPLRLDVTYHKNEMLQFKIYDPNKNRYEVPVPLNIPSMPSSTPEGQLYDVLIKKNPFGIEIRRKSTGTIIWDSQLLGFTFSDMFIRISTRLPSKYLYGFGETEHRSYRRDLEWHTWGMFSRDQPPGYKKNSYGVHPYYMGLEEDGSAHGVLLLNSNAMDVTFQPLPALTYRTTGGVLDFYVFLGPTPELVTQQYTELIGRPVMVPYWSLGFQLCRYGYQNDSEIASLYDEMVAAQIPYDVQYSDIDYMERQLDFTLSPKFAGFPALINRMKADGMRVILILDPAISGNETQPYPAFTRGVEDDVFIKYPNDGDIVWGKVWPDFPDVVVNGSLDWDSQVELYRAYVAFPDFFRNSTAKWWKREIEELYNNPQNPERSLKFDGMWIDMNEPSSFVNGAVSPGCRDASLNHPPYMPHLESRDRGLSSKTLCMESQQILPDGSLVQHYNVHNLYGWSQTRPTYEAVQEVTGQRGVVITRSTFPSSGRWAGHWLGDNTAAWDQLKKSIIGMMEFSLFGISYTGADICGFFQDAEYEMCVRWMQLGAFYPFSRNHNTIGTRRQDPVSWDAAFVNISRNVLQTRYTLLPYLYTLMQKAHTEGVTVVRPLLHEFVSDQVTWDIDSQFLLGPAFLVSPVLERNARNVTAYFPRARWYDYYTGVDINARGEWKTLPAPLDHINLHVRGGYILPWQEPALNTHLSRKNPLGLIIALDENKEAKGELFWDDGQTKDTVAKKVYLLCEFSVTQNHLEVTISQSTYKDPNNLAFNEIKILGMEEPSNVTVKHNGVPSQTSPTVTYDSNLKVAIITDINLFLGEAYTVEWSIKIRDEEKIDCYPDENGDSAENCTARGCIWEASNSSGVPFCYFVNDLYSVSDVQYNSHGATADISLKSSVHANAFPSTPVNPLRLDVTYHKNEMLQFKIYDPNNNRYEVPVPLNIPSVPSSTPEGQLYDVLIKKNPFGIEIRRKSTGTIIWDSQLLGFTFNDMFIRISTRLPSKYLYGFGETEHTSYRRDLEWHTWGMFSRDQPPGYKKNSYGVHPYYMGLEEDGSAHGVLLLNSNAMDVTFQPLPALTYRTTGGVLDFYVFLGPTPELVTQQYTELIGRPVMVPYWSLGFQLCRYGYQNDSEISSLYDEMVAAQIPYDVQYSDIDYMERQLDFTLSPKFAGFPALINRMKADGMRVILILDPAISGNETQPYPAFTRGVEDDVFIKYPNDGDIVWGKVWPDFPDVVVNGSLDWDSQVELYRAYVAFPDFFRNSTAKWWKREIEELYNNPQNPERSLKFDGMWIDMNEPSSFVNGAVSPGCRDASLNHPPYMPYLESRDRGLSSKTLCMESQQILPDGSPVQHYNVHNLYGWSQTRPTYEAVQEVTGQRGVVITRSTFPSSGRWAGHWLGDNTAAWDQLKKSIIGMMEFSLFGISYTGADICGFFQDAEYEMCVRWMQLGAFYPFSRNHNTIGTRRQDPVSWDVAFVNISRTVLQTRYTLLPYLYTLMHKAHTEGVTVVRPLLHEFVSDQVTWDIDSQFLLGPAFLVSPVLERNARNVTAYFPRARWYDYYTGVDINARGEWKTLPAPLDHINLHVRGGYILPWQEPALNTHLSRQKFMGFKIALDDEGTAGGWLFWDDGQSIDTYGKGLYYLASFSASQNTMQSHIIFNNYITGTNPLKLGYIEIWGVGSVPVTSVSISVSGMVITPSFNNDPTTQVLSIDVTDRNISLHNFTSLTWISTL

Q: With `C[C@]1(CO)[C@H]2CC[C@@]3(CO3)[C@@H](/C=C/C3=CC(=C/C=C/c4ccccc4)/OC3=O)[C@]2(C)CC[C@H]1O` [(5Z)-3-[(E)-2-[(1S,2S,4aS,5R,6R,8aR)-6-hydroxy-5-(hydroxymethyl)-5,8a-dimethyl-octahydro-1H-spiro[naphthalene-2,2'-oxirane]-1-yl]ethenyl]-5-[(2E)-3-phenylprop-2-en-1-ylidene]-2,5-dihydrofuran-2-one] as the compound, how does the IC50 read?
A: 101 µM

Q: `C=C1CC[C@@H]2[C@](C)(CO)[C@H](O)CC[C@@]2(C)[C@@H]1/C=C/C1=CC(=C/C=C/c2ccccc2)/OC1=O` [3-(2-((1R,4aS,5R,6R,8aR)-6-hydroxy-5-(hydroxymethyl)-5,8a-dimethyl-2-methylene-decahydronaphthalen-1-yl)vinyl)-5-(3-phenylallylidene)furan-2(5H)-one] was tested. Which IC50 did it give?
A: 58 µM

Q: With `COc1ccc(/C=C2C=C(/C=C/[C@@H]3[C@@]4(CC[C@@H]5[C@](C)(CO)[C@H](O)CC[C@]53C)CO4)C(=O)O/2)cc1` [(5Z)-3-[(E)-2-[(1S,2S,4aS,5R,6R,8aR)-6-hydroxy-5-(hydroxymethyl)-5,8a-dimethyl-octahydro-1H-spiro[naphthalene-2,2'-oxirane]-1-yl]ethenyl]-5-[(4-methoxyphenyl)methylidene]-2,5-dihydrofuran-2-one] as the compound, how does the IC50 read?
A: 120 µM

Q: With `C=C1CC[C@@H]2[C@](C)(CO)[C@H](O)CC[C@@]2(C)[C@@H]1/C=C/C1=CC(=C/CCC)/OC1=O` [5-butylidene-3-(2-((1R,4aS,5R,6R,8aR)-6-hydroxy-5-(hydroxymethyl)-5,8a-dimethyl-2-methylene-decahydronaphthalen-1-yl)vinyl)furan-2(5H)-one] as the compound, how does the IC50 read?
A: 110 µM

Q: `C=C1CC[C@@H]2[C@]3(C)COC(c4cccc(Br)c4)O[C@@H]3CC[C@@]2(C)[C@@H]1C/C=C1/C(=O)OC[C@H]1O` (stereo partly drawn) [(S)-3-(2-((4aR,6aS,7R,10aS,10bR)-3-(3-bromophenyl)-6a,10b-dimethyl-8-methylene-decahydro-1H-naphtho[2,1-d][1,3]dioxin-7-yl)ethylidene)-4-hydroxy-dihydrofuran-2(3H)-one] was tested. Which IC50 did it give?
A: 100 µM

Q: For `C=C1CC[C@@H]2[C@]3(C)COC(c4ccccc4)O[C@@H]3CC[C@@]2(C)[C@@H]1C/C=C1/C(=O)OC[C@H]1O` (stereo partly drawn) [(S)-3-(2-((4aR,6aS,7R,10aS,10bR)-6a,10b-dimethyl-8-methylene-3-phenyl-decahydro-1H-naphtho[2,1-d][1,3]dioxin-7-yl)ethylidene)-4-hydroxy-dihydrofuran-2(3H)-one], which IC50 is on record?
A: 101 µM
